Data: patent US12564193B2, “Isoxazoline-substituted benzamide derivative, and preparation method therefor and use thereof” (SHANDONG UNITED PESTICIDE INDUSTRY CO., LTD., priority 2020, dated 2026)
Where two headings read alike, the source gives them in different places.

Experiments:
Type in all cases: in vivo
[1] = tested on: Frankliniella occidentalis; test: Insecticidal activity, spray on pre-infested radish plants: Frankliniella occidentalis; details: Frankliniella occidentalis, 144 h, read-out: fatality rate on Frankliniella occidentalis
Method: (§1) For determination of insecticidal activity, the test method was as follows: a test solution with a desired concentration was prepared by dissolving a test compound sample in a suitable solvent (the kind of solvent was such as acetone, methanol, DMSO, etc., and was selected according to its dissolving ability for the sample). The test cell was composed of a small open container with 12-15 day old radish plants inside. The plants were pre-infested by placing 30-40 pests located on one leaf cut from the cultivated plant on one leaf of the test plant (leaf cutting method). As the leaves dehydrated, the pests moved on the test plants. After the pre-infesting, the soil of the test cells was covered with a layer of sand.
The test method was as follows: the test was repeated for three times, and after spraying the formulated test compound, each test unit was allowed to dry for 1 hour, and then a black mesh cover was placed at the top. The test units were kept in a growth chamber at 25° C. and 70% relative humidity for 6 days. The mortality (fatality rate) of the insects was then visually assessed for each test unit, and the fatality rate was calculated as follows:
[formula] (1) Test Results for the Control of Frankliniella occidentalis by Exemplary Example Compounds

Plutella xylostella = test: Insecticidal activity, spray on pre-infested radish plants: Plutella xylostella; details: Plutella xylostella, 144 h, read-out: fatality rate on Plutella xylostella
Method: as §1
(§2) The test method was as follows: the test was repeated for three times, and after spraying the formulated test compound, each test unit was allowed to dry for 1 hour, and then a black mesh cover was placed at the top. The test units were kept in a growth chamber at 25° C. and 70% relative humidity for 6 days. The mortality (fatality rate) of the insects was then visually assessed for each test unit, and the fatality rate was calculated as follows: […]

Pieris rapae = test: Insecticidal activity, spray on pre-infested radish plants: Pieris rapae; details: 144 h, read-out: fatality rate on Pieris rapae
Method: as §1, §2

Mythimna separata = test: Insecticidal activity, spray on pre-infested radish plants: Mythimna separata; details: Mythimna separata, 144 h, read-out: fatality rate on Mythimna separata
Method: as §1, §2

Spodoptera litura = test: Insecticidal activity, spray on pre-infested radish plants: Spodoptera litura; details: 144 h, read-out: fatality rate on Spodoptera litura
Method: as §1, §2

Chilo suppressalis = test: Insecticidal activity, spray on pre-infested radish plants: Chilo suppressalis; details: Chilo suppressalis, 144 h, read-out: fatality rate on Chilo suppressalis
Method: as §1, §2

Cnaphalocrocis medinalis = test: Insecticidal activity, spray on pre-infested radish plants: Cnaphalocrocis medinalis; details: 144 h, read-out: fatality rate on Cnaphalocrocis medinalis
Method: as §1, §2

Tetranychus cinnabarinus = test: Acaricidal activity, slide immersion of female adult mites: Tetranychus cinnabarinus; details: read-out: fatality rate on Tetranychus cinnabarinus
Method: The test method was as follows: a test solution with a desired concentration was prepared by dissolving a test compound sample in a suitable solvent (the kind of solvent was such as acetone, methanol, DMSO, etc., and was selected according to its dissolving ability for the sample). A double-sided adhesive tape was cut into 2-3 cm long pieces, the pieces were attached to one end of a microscope slide, paper pieces on the adhesive tape were removed using tweezers, female adult mites which were consistent in size, bright in body color and lively in action were selected using a zero-size brush pen, the backs of the female adult mites were adhered to the double-sided adhesive tape (note: the adhesion should not cover mite feet, mite whiskers and mouthparts), with 4 rows of mites adhered to each piece and 10 heads of the mites adhered to each row.
One end of the glass slide with the mites was immersed into a drug liquid, with slightly shaking for 5 seconds, and then the slide was taken out. The excess drug liquid around the mite body and is surroundings is quickly sucked off using absorbent paper. The slide was placed in the biochemical incubator described above, and the results were checked by using binoculars after 24 hours. The mites were slightly touched by using a brush pen, the mites with immobility in feet were considered to be dead, and the fatality rate was calculated. The fatality rate was calculated as follows: […]

Cc1cc(C2=NOC(c3cc(Cl)c(F)c(Cl)c3)(C(F)(F)F)C2)ccc1C(=O)NCc1cnccc1C(F)(F)F (stereo not drawn) [Compound 3]
> 80%: pest or weed control at 1 ppm [1] | pest or weed control at 10 ppm [1] | pest or weed control at 25 ppm [1] | pest or weed control at 0.1 ppm (Plutella xylostella) | pest or weed control at 1 ppm (Plutella xylostella) | pest or weed control at 10 ppm (Plutella xylostella) | pest or weed control at 0.1 ppm (Pieris rapae) | pest or weed control at 1 ppm (Pieris rapae) | pest or weed control at 10 ppm (Pieris rapae) | pest or weed control at 0.1 ppm (Mythimna separata) | pest or weed control at 1 ppm (Mythimna separata) | pest or weed control at 10 ppm (Mythimna separata) | pest or weed control at 0.1 ppm (Spodoptera litura) | pest or weed control at 1 ppm (Spodoptera litura) | pest or weed control at 10 ppm (Spodoptera litura) | pest or weed control at 0.1 ppm (Chilo suppressalis) | pest or weed control at 1 ppm (Chilo suppressalis) | pest or weed control at 10 ppm (Chilo suppressalis) | pest or weed control at 0.1 ppm (Cnaphalocrocis medinalis) | pest or weed control at 1 ppm (Cnaphalocrocis medinalis) | pest or weed control at 10 ppm (Cnaphalocrocis medinalis) | pest or weed control at 1 ppm (Tetranychus cinnabarinus; 24 h) | pest or weed control at 10 ppm (Tetranychus cinnabarinus; 24 h) | pest or weed control at 25 ppm (Tetranychus cinnabarinus; 24 h)

Cc1cc(C2=NOC(c3cc(Cl)c(F)c(Cl)c3)(C(F)(F)F)C2)ccc1C(=O)NCc1cnc(Cl)cc1C(F)(F)F (stereo not drawn) [Compound 5]
> 80%: pest or weed control at 1 ppm [1] | pest or weed control at 10 ppm [1] | pest or weed control at 25 ppm [1] | pest or weed control at 0.1 ppm (Plutella xylostella) | pest or weed control at 1 ppm (Plutella xylostella) | pest or weed control at 10 ppm (Plutella xylostella) | pest or weed control at 0.1 ppm (Pieris rapae) | pest or weed control at 1 ppm (Pieris rapae) | pest or weed control at 10 ppm (Pieris rapae) | pest or weed control at 0.1 ppm (Mythimna separata) | pest or weed control at 1 ppm (Mythimna separata) | pest or weed control at 10 ppm (Mythimna separata) | pest or weed control at 0.1 ppm (Spodoptera litura) | pest or weed control at 1 ppm (Spodoptera litura) | pest or weed control at 10 ppm (Spodoptera litura) | pest or weed control at 0.1 ppm (Chilo suppressalis) | pest or weed control at 1 ppm (Chilo suppressalis) | pest or weed control at 10 ppm (Chilo suppressalis) | pest or weed control at 0.1 ppm (Cnaphalocrocis medinalis) | pest or weed control at 1 ppm (Cnaphalocrocis medinalis) | pest or weed control at 10 ppm (Cnaphalocrocis medinalis) | pest or weed control at 1 ppm (Tetranychus cinnabarinus; 24 h) | pest or weed control at 10 ppm (Tetranychus cinnabarinus; 24 h) | pest or weed control at 25 ppm (Tetranychus cinnabarinus; 24 h)

Cc1cc(C2=NOC(c3cc(F)c(F)c(F)c3)(C(F)(F)F)C2)ccc1C(=O)NCc1cnc(Cl)cc1C(F)(F)F (stereo not drawn) [Compound 6]
> 80%: pest or weed control at 1 ppm ([1]; dose 1 ppm, spray, 6 days) | pest or weed control at 10 ppm ([1]; dose 10 ppm, spray, 6 days) | pest or weed control at 25 ppm ([1]; dose 25 ppm, spray, 6 days) | pest or weed control at 0.1 ppm (Plutella xylostella; dose 0.1 ppm, spray, 6 days) | pest or weed control at 1 ppm (Plutella xylostella; dose 1 ppm, spray, 6 days) | pest or weed control at 10 ppm (Plutella xylostella; dose 10 ppm, spray, 6 days) | pest or weed control at 0.1 ppm (Pieris rapae; dose 0.1 ppm, spray, 6 days) | pest or weed control at 1 ppm (Pieris rapae; dose 1 ppm, spray, 6 days) | pest or weed control at 10 ppm (Pieris rapae; dose 10 ppm, spray, 6 days) | pest or weed control at 0.1 ppm (Mythimna separata; dose 0.1 ppm, spray, 6 days) | pest or weed control at 1 ppm (Mythimna separata; dose 1 ppm, spray, 6 days) | pest or weed control at 10 ppm (Mythimna separata; dose 10 ppm, spray, 6 days) | pest or weed control at 0.1 ppm (Spodoptera litura; dose 0.1 ppm, spray, 6 days) | pest or weed control at 1 ppm (Spodoptera litura; dose 1 ppm, spray, 6 days) | pest or weed control at 10 ppm (Spodoptera litura; dose 10 ppm, spray, 6 days) | pest or weed control at 0.1 ppm (Chilo suppressalis; dose 0.1 ppm, spray, 6 days) | pest or weed control at 1 ppm (Chilo suppressalis; dose 1 ppm, spray, 6 days) | pest or weed control at 10 ppm (Chilo suppressalis; dose 10 ppm, spray, 6 days) | pest or weed control at 0.1 ppm (Cnaphalocrocis medinalis; dose 0.1 ppm, spray, 6 days) | pest or weed control at 1 ppm (Cnaphalocrocis medinalis; dose 1 ppm, spray, 6 days) | pest or weed control at 10 ppm (Cnaphalocrocis medinalis; dose 10 ppm, spray, 6 days) | pest or weed control at 1 ppm (Tetranychus cinnabarinus; dose 1 ppm, immersion 5 seconds, checked after 24 hours) | pest or weed control at 10 ppm (Tetranychus cinnabarinus; dose 10 ppm, immersion 5 seconds, checked after 24 hours) | pest or weed control at 25 ppm (Tetranychus cinnabarinus; dose 25 ppm, immersion 5 seconds, checked after 24 hours)

Cc1cc(C2=NOC(c3cc(Cl)c(F)c(Cl)c3)(C(F)(F)F)C2)ccc1C(=O)NCc1cnc(Cl)cc1Cl (stereo not drawn) [Compound 7]
> 80%: pest or weed control at 1 ppm [1] | pest or weed control at 10 ppm [1] | pest or weed control at 25 ppm [1] | pest or weed control at 0.1 ppm (Plutella xylostella) | pest or weed control at 1 ppm (Plutella xylostella) | pest or weed control at 10 ppm (Plutella xylostella) | pest or weed control at 0.1 ppm (Pieris rapae) | pest or weed control at 1 ppm (Pieris rapae) | pest or weed control at 10 ppm (Pieris rapae) | pest or weed control at 0.1 ppm (Mythimna separata) | pest or weed control at 1 ppm (Mythimna separata) | pest or weed control at 10 ppm (Mythimna separata) | pest or weed control at 0.1 ppm (Spodoptera litura) | pest or weed control at 1 ppm (Spodoptera litura) | pest or weed control at 10 ppm (Spodoptera litura) | pest or weed control at 0.1 ppm (Chilo suppressalis) | pest or weed control at 1 ppm (Chilo suppressalis) | pest or weed control at 10 ppm (Chilo suppressalis) | pest or weed control at 0.1 ppm (Cnaphalocrocis medinalis) | pest or weed control at 1 ppm (Cnaphalocrocis medinalis) | pest or weed control at 10 ppm (Cnaphalocrocis medinalis) | pest or weed control at 1 ppm (Tetranychus cinnabarinus; 24 h) | pest or weed control at 10 ppm (Tetranychus cinnabarinus; 24 h) | pest or weed control at 25 ppm (Tetranychus cinnabarinus; 24 h)
